Reference: US20250114367A1, “METHOD OF TREATING HAIR LOSS DISORDERS” (Sun Pharmaceutical Industries, Inc., priority 2023, published 2025)
Where two headings read alike, the source gives them in different places.

Legend:
Assay type in all cases: in vivo, human
[1] = Renal impairment study: PK after a single 12 mg oral dose of CTP-543; conditions: for Tmax / AUC(0-t) / AUC(0-inf) / Cmax / Vd/F / half-life: human, plasma, po, 12 mg; for Tmax / AUC(0-t) / AUC(0-inf) / Cmax / Vd/F / half-life / CL/F (geometric mean) / Clast (geometric mean): single 12 mg oral dose of CTP-543, outlier excluded; for AUC(0-t): read-out: AUC0-Tlast (geometric mean); for AUC(0-inf): read-out: AUC0-inf (geometric mean); for Cmax: read-out: Cmax (geometric mean); for Vd/F: read-out: Vz/F (geometric mean); for half-life: read-out: terminal elimination half-life (geometric mean) (converted)
Excerpt: The study enrolled 8 subjects in the normal renal function cohort, and 8 subjects in the moderate impaired renal function cohort.
The primary endpoint of this study was single dose PK exposure parameters: Cmax, AUC(0-Tlast), and AUC(0-∞).
The secondary endpoints of this study were: • Adverse Events, clinical laboratory findings, physical examinations, ECGs, and vital signs. • Other PK parameters, such as, but not limited to: Tmax, λz, t1/2, CL/F, and Vz/F.
All subjects had samples collected for PK.
PK parameters were determined using non-compartmental analysis (NCA) methods based on individual plasma concentration-time data for all PK analytes.

[2] = tested on: adult subjects with moderate to severe AA; assay: Phase III trial: Brigham Eyebrow Tool for Alopecia (BETA)
Procedure: The BETA is a clinician-rated scale developed by dermatologists at Brigham and Women's Hospital that assesses the total eyebrow hair present (Tkachenko, E, et al., Brigham Eyebrow Tool for Alopecia: A Reliable Assessment of Eyebrow Alopecia Areata, Journal of Investigative Dermatology Symposium Proceedings (2020) 20, S41-S44). The BETA is calculated based on hair density (range 0 to 3) and surface area of each individual eyebrow. The BETA score is the sum of the right and left eyebrow scores (range 0 (absent) to 6). An expert panel of certified raters at Brigham and Women's Hospital performed central readings based on photographs of the eyebrows provided by the study sites and determined a score for each subject with eyebrow involvement following each visit where an assessment of eyebrow hair presence was assessed. The BETA was performed at baseline, Week 12, and Week 24. If a subject was unable to attend an in-person clinic visit due to COVID-19, the BETA may not have been performed due to the inability to take photographs of the eyebrows.
(§1) A Phase III trial was conducted to assess the efficacy and safety of CTP-543 in adult subjects with moderate to severe AA. Approximately 440 adult male and female subjects 18 to 65 years of age, inclusive, with moderate to severe AA participated in the study. Subjects with definitive diagnosis of AA, and at least 50% hair loss, as defined by a SALT score ≥50, who met all of the inclusion criteria and none of the exclusion criteria participated in the study.
(§2) The Screening Period lasted up to 28 days prior to initiation of study drug. […] Randomization was stratified by scalp hair loss into 1 of the following 2 categories: 1) partial scalp hair loss (SALT ≥50 and <95), 2) complete or near complete scalp hair loss (SALT ≥95). […]

[3] = tested on: adult subjects with moderate to severe AA; assay: Phase III trial: Brigham Eyelash Tool for Alopecia (BELA)
Procedure: The BELA is a clinician-rated scale developed by dermatologists at Brigham and Women's Hospital that assesses the total eyelash hair present Manjaly, P. et al., Development and validation of the Brigham Eyelash Tool for Alopecia (BELA): A measure of eyelash alopecia areata, J Am Acad Dermatol (2021) 1-2. The BELA is calculated based on grade values (range 0 to 3) and distribution. The BELA score is the sum of the individual scores for the left and right eyes (range 0 (absent) to 6). The same expert panel of certified raters at Brigham and Women's Hospital who performed the BETA assessment also performed central readings based on photographs of the eyelashes and determined a score for each subject with eyelash involvement following each visit where an assessment of eyelash hair presence was assessed. The BELA was performed at baseline, Week 12, and Week 24. If a subject was unable to attend an in-person clinic visit due to COVID-19, the BELA may not have been performed due to the inability to take photographs of the eyelashes.
as §1, §2

[4] = compared to healthy control subjects
[5] = moderate renal impairment N = 7

Structure (SMILES): [2H]C1([2H])C([C@@H](CC#N)n2cc(-c3ncnc4[nH]ccc34)cn2)C([2H])([2H])C([2H])([2H])C1([2H])[2H] [CTP-543, (R)-3-(4-(7H-pyrrolo[2,3-d]pyrimidin-4-yl)-1H-pyrazol-1-yl)-3-(cyclopentyl-2,2,3,3,4,4,5,5-d8) propanenitrile]
- effect of moderate renal impairment on Cmax [1, 4]: without altering Cmax
- increase of plasma AUC by moderate renal impairment [1, 4]: approximately 24%
- Tmax [1, 5]: 0.5 h
- AUC(0-t) [1, 5]: 1.04 µg·h/mL
- AUC(0-inf) [1, 5]: 1.05 µg·h/mL
- Cmax [1, 5]: 0.207 µg/mL
- Vd/F [1, 5]: 72.1 L
- half-life [1, 5]: 4.36 h
- Tmax ([1]; normal renal function N = 8): 0.71 h
- AUC(0-t) ([1]; normal renal function N = 8): 0.836 µg·h/mL
- AUC(0-inf) ([1]; normal renal function N = 8): 0.843 µg·h/mL
- Cmax ([1]; normal renal function N = 8): 0.199 µg/mL
- Vd/F ([1]; normal renal function N = 8): 85.6 L
- half-life ([1]; normal renal function N = 8): 4.17 h
- CL/F (geometric mean) [1, 5]: 11.3 L/h
- Clast (geometric mean) [1, 5]: 0.000977 µg/mL
- CL/F (geometric mean) ([1]; normal renal function N = 8): 14.2 L/h
- Clast (geometric mean) ([1]; normal renal function N = 8): 0.000698 µg/mL
- BETA score, LS mean change from baseline ([2]; Week 12, 8 mg BID): 0.8
- BETA score, LS mean change from baseline ([2]; Week 12, 12 mg BID): 0.8
- BETA score, LS mean change from baseline ([2]; Week 24, 8 mg BID): 1.1
- BETA score, LS mean change from baseline ([2]; Week 24, 12 mg BID): 1.4
- BELA score, LS mean change from baseline ([3]; Week 12, 8 mg BID): 0.9
- BELA score, LS mean change from baseline ([3]; Week 12, 12 mg BID): 1.0
- BELA score, LS mean change from baseline ([3]; Week 24, 8 mg BID): 1.4
- BELA score, LS mean change from baseline ([3]; Week 24, 12 mg BID): 1.5
